From patent US20070185077A1, “Methods of treating, preventing and inhibiting cancer metastasis and tumor formation” (Washington University, priority 2003, published 2007)
Bridge positions count the residues as written; N and C are the ends. Square brackets hold non-standard residues; d marks the D form. Peptide text beside a SMILES is read from it. Phe(4-CH2NH2) = NCc1ccc(C[C@H](N)C(=O)O)cc1; Thz(5,5-Me2) = CC1(C)SCN[C@@H]1C(=O)O; NMeR = CN[C@@H](CCCNC(=N)N)C(=O)O; 3Amb = NCc1cccc(C(=O)O)c1; dAbu = CC[C@@H](N)C(=O)O

Columns and labels:
[1] = molecular target: platelet GPIIb/IIIa receptors (Homo sapiens, UniProt P05106+P08514); conditions: cited from earlier work
[2] = molecular target: activated platelet GPIIb/IIIa receptors (Homo sapiens, UniProt P05106+P08514); conditions: cited from earlier work; for affinity for activated versus resting platelet GPIIb/IIIa: resting vs activated form
[3] = molecular target: resting platelet GPIIb/IIIa receptors (Homo sapiens, UniProt P05106+P08514); conditions: resting form of GPIIb/IIIa; cited from earlier work
B16 melanoma cells = test: B16 LV injection metastasis model in β3+/+ mice; type: in vivo
Procedure: The activated αIIbβ3 receptor antagonist was tested based on its ability to diminish metastases in wild type mice. […] The mice were treated 30 minutes prior to the LV injection of 1×10^5 B16 cells, and then every 12 hours for 5 doses (2.5 days of treatment out of the 14 day experiment). 14/40 (35%) mice died from bleeding complications after the LV injection indicative of effective disruption of αIIbβ3 mediated platelet aggregation. 1/17 (6%) placebo treated mice died after the LV injection procedure. […] Placebo in DMSO carrier was also administered by oral gavage. Mice were evaluated 14 days after B16 injection for bone and visceral metastases.
Mice were anaesthetized followed by injection with 30 gauge needles of 1×10^5 B16 cells in 100 μl PBS into the left cardiac ventricle as previously described. Confirmation of correct insertion was established by pulsing geyser of blood in the syringe. After the injection mice were monitored daily for 14 days.
(§1) C57BI6 mice were used to analyze metastasis antagonism. […] Blockade of platelet aggregation is complete at 30 minutes after oral gavage but persists for up to 10 hours. […] Thirty minutes after the first oral-gavage dose, mice were LV injected with B16 cells and evaluated for metastases 14 days later.

platelet aggregation = test: Platelet aggregation after in vivo oral administration (aggregometry from PRP); parameters: species or system mice; conditions: after an oral dose of 100 mg/kg
Text: An activated αIIbβ3 receptor antagonist in β3^+/+ mice was utilized in examples showing the role of platelet β3 integrin in the protection from bone metastases seen in the β3^−/− mouse. […] However, those skilled in the art will recognize that additional activated αIIbβ3 receptor antagonists may be used in the methods, the efficacies of which may be determined using the protocols of the present disclosure. Additional protocols are available to those skilled in the art to determine the efficacy of other activated αIIbβ3 receptor antagonists. Such activated αIIb3 receptor antagonists are meant to be encompassed within the scope of the present invention.
as §1

[4] = cited from earlier work

platelet GPIIb/IIIa receptors, sequence (P08514 32-887 limits assumed): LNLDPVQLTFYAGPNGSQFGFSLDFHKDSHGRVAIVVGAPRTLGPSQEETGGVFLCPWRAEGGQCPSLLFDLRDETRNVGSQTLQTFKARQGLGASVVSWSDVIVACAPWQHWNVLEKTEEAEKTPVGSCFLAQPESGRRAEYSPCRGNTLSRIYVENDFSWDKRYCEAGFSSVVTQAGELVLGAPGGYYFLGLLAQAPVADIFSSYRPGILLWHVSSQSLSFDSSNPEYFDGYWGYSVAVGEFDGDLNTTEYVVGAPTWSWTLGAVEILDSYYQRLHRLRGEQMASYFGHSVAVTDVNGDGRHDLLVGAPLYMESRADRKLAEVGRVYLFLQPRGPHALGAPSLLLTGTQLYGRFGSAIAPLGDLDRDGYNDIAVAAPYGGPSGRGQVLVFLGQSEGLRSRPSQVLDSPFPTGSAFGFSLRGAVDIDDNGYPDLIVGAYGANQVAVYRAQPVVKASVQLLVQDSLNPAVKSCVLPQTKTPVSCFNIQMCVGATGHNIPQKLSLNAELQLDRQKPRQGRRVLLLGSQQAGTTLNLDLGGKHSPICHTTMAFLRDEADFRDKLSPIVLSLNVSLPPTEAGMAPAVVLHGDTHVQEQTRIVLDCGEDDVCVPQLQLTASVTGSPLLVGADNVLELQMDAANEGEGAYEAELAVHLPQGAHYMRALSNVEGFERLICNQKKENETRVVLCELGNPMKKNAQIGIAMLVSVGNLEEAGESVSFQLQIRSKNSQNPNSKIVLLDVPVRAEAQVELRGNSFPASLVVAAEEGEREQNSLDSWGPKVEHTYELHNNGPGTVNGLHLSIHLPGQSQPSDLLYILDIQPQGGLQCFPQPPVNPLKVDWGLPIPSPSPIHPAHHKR
platelet GPIIb/IIIa receptors, sequence (P08514 891-1039 limits assumed): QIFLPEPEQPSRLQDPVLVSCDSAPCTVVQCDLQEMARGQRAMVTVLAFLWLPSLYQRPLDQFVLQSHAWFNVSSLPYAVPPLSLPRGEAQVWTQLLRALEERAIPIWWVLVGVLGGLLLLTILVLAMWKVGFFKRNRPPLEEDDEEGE
platelet GPIIb/IIIa receptors, sequence (P05106 27-788): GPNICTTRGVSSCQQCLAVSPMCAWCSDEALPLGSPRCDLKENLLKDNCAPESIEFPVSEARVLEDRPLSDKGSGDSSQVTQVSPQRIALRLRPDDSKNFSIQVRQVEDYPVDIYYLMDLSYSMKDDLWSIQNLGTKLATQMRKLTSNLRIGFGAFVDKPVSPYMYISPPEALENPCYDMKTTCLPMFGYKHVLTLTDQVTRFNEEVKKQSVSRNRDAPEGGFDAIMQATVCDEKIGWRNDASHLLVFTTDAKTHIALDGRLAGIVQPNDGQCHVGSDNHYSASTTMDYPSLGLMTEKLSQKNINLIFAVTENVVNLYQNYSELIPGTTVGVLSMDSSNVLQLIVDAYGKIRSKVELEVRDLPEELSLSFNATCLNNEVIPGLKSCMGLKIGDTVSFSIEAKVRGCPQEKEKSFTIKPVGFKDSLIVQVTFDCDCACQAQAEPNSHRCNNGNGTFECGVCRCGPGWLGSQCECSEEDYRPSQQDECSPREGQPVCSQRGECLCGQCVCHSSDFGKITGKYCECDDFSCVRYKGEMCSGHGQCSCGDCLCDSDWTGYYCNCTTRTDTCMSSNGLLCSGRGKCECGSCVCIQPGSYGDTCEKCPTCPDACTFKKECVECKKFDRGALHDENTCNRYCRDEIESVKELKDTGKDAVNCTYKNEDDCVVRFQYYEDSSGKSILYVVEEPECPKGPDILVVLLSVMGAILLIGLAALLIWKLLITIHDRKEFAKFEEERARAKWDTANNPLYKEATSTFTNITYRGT
activated platelet GPIIb/IIIa receptors, sequence (P08514 32-887 limits assumed): as the sequence (P08514 32-887 limits assumed) above
activated platelet GPIIb/IIIa receptors, sequence (P08514 891-1039 limits assumed): as the sequence (P08514 891-1039 limits assumed) above
activated platelet GPIIb/IIIa receptors, sequence (P05106 27-788): as the sequence (P05106 27-788) above
resting platelet GPIIb/IIIa receptors, sequence (P08514 32-887 limits assumed): as the sequence (P08514 32-887 limits assumed) above
resting platelet GPIIb/IIIa receptors, sequence (P08514 891-1039 limits assumed): as the sequence (P08514 891-1039 limits assumed) above
resting platelet GPIIb/IIIa receptors, sequence (P05106 27-788): as the sequence (P05106 27-788) above

In the case of CC[C@H]1NC(=O)c2cccc(c2)CNC(=O)[C@H](CC(=O)O)NC(=O)CNC(=O)[C@H](CCCN=C(N)N)N(C)C1=O.CS(=O)(=O)O [DMP728] (cyclo([NMeR]GD[3Amb][dAbu])), the platelet dissociation rate [1] is listed as “relatively fast” and the “affinity for activated versus resting platelet GPIIb/IIIa” value [2] is listed as “much higher affinity to the activated form”.
In the case of C[C@H](CC(=O)O)NC(=O)CN1CCC[C@@H](CCC2CCNCC2)C1=O [L734217], the platelet dissociation rate [1] is given as “relatively fast”, the Kd [3] is given as 620 nM and the Kd ([2]; activated form of GPIIb/IIIa) is given as 5 nM. The “affinity for activated versus resting platelet GPIIb/IIIa” value [2] was “much higher affinity to the activated form”.
In the case of CC(=O)N[C@H]1CSSC[C@@H](C(=O)O)NC(=O)[C@H](CC(=O)O)NC(=O)CNC(=O)[C@H](Cc2ccc(CN)cc2)NC(=O)[C@H]2N(CSC2(C)C)C(=O)[C@@H](CC(N)=O)NC1=O [MK852] (Ac-C[dN][Thz(5,5-Me2)][Phe(4-CH2NH2)]GDC-OH; disulfide 1-7), the platelet dissociation rate [1] is listed as “relatively fast” and the “affinity for activated versus resting platelet GPIIb/IIIa” value [2] is listed as “much higher affinity to the activated form”.
With CCOC(=O)CCNC(=O)N1CCC2(CC1)CCN(c1ccc(C(=N)NO)cc1)C2=O [ML464] the “surviving mice with bone metastases” value (B16 melanoma cells; 100 mg/Kg oral every 12 hours for 5 doses, 14 days after B16 LV injection, vehicle 76%, P=0.0013) was 23%, the “visceral metastases versus placebo” value (B16 melanoma cells; 100 mg/Kg oral every 12 hours for 5 doses, day 14, P=0.0125) was “decrease” and the “mice died from bleeding complications after the LV injection” value (B16 melanoma cells; 100 mg/Kg oral gavage, 30 minutes prior to LV injection, 14/40 mice) was 35%. For the same compound, the “number and size of visceral metastases versus placebo group” value (B16 melanoma cells; mice that did develop metastases, tumor sizes not measured) was “reduced”, the “metastases in inhibitor treated mice compared to placebo treated mice” value (B16 melanoma cells; β3+/+ mice, FIG. 5(b)) was “decrease of metastases” and the “duration of disruption of platelet aggregation” value (platelet aggregation) was “up to 10 hours”.
In the case of CCCCOC(=O)N[C@@H](CNC(=O)C[C@H]1CC(c2ccc(C(=N)N)cc2)=NO1)C(=O)OC [roxifiban], the platelet dissociation rate [1] is given as “relatively slow” and the “affinity for activated versus resting platelet GPIIb/IIIa” value [2] is given as “comparable Kd values”.
In the case of “Abciximab: Fab fragment of the chimeric human-murine monoclonal antibody 7E3”, the “human antibody response to the chimeric antibody, patients” value [4] is given as “approximately 6%”.
